# US20080069857A1, “Compositions And Methods For Inhibiting Adhesions” (priority 2006, published 2008)
# What was measured:
# [1] = Budesonide solubility in saline; assay type: physicochemical; conditions: saline or isotonic, thermodynamic from solid, 37° C., read-out: saturation solubility in saline
# Experimental: The maximum solubility of budesonide in saline was determined as described (Gennaro A R, editor. Remington: The Science and Practice of Pharmacy. 20th ed. Philadelphia, Pa.: Lippincott Williams & Wilkins, 2000, which is incorporated herein by reference). First, increasing amounts of budesonide were mixed with saline to provide budesonide concentration in the system from 25 mg/ml to 0.002 mg/ml. The mixtures were constantly stirred at 37° C. for 24 hours, and then centrifuged at 12,000 rpm for 5 minutes to separate the solution phase from the solid phase. The budesonide concentrations in the solution phase were measured by High Performance Liquid Chromatography (HPLC). The saturation solubility of budesonide in saline was determined by extrapolating the line segment, of which slope was 0, to y-axis.
# In a separate experiment, budesonide-saline 0.13 mg/ml was prepared as described above, divided into 1 ml aliquots, and incubated at 37° C. with constant stirring. At timed intervals, an aliquot of budesonide-saline was taken and centrifuged at 12,000 rpm for 5 minutes to separate 0.8 ml of supernatant for HPLC analysis. The remaining 0.2 ml, potentially containing precipitated budesonide, was dissolved in 0.8 ml acetonitrile and analyzed with HPLC. […]
# [2] = United States Pharmacopoeia classification "practically insoluble"; cited from earlier work
# [3] = tested on: IL-6 production by primary mouse macrophages; assay: IL-6 production by LPS-challenged macrophages; assay type: cell-based, mouse (C57/B16); conditions: macrophages stimulated with LPS
# Experimental: (§1) C57/B16 mice were purchased from Taconic (Hudson, N.Y.). 2 ml of 3% (w/v) sterile thioglycollate solution (DIFCO Laboratories, Detroit, Mich.) was injected into the peritoneal cavity. Four days after injection, the mice were euthanized by CO2, and 6 ml of ice-cold PBS buffer containing 5 mM EDTA was injected. After agitating the peritoneum with forceps, a macrophage-containing solution was aspirated. The cells were placed immediately into iced DMEM on ice prior to washing, counting and plating. Approximately 10^7 cells per mouse were obtained.
# (§2) Non-adherent cells were removed by washing with 200 μl/well PBS buffer. Then 100 μl of DMEM with 10% FBS and 100 μl of medium pre-incunated with hydrogels (Sec. 2.2.9), or known concentrations of dexamethasone, were added to the adherent macrophages in each well. After incubation for 24 h at 37° C. in 5% CO2, 25 μl of 900 ng/ml of LPS (Sigma, St. Louis, Mo.; Catalog #L-4391) was added to each well to a final concentration of 100 ng/ml. After incubation for a further 16 h, the media were collected and stored at −80° C. until analyzed. The concentration of TNF-α, IL-6, and dexamethasone in those media were measured by ELISA (enzyme-linked immunosorbent assay). The ELISA kits for TNF-α, IL-6, and dexamethasone were purchased from R&D Systems (DuoSet, Cat DY406), BioLegend (Mouse IL-6 ELISA MAX™ Set (Deluxe)), and Neogen Corporation, respectively.
# [4] = tested on: TNF-α production by primary mouse macrophages; assay: TNF-α production by LPS-challenged macrophages; assay type: cell-based, mouse (C57/B16); conditions: macrophages stimulated with LPS
# Experimental: as §1, §2
# [5] = tested on: Human mesothelial cells (ATCC, CRL-9444)
# Experimental: In vitro cell viability assay: Human mesothelial cells (ATCC, CRL-9444) were cultured in Medium 199, containing Earle's salts, L-glutamine, and 2.2 g/L sodium bicarbonate and supplemented with 3.3 nM epidermal growth factor, 400 nM hydrocortisone, 870 nM insulin, 20 mM HEPES, and 10% fetal bovine serum. Cells from passage 5 through 25 were used for the following studies. Mesothelial cells were seeded into 24-well plates at a density of 50,000 cells per well in 1 ml of culture medium. […] After varying periods of incubation in the presence of the hydrogels, cell viability was assessed with an MTT assay kit (Promega CellTiter 96 Non-Radioactive Cell Proliferation Assay).
# Cell proliferation assay. […] After varying periods of incubation in the presence of the hydrogels, cell viability was assessed with an MTT assay kit (Promega CellTiter 96 Non-Radioactive Cell Proliferation Assay).
# Mesothelial cells were grown and maintained in a complete growth medium (GIBCO: Medium199 with Earle's BSS, 0.75 mM L-glutamine and 1.25 g/L sodium bicarbonate supplemented with 3.3 nM epidermal growth factor, 400 nM hydrocortisone, 870 nM insulin, 20 mM HEPES and 10% fetal bovine serum) at 37° C. in 5% CO2. […] The purple formazan produced by active mitochondria was solubilized using 1 ml detergent solution and then read at 570 nm by plate reader (Molecular Devices: SpectraMax 384, Union City, Calif.). […]
# peritoneal adhesions = conditions: 1 week after second laparotomy
# Experimental: Repeated laparotomy model. Female albino rabbits (Oryctolagus cuniculus; New Zealand White) (3±0.5 kg) were used. The first laparotomy and post-operation care were performed as described above. A 2nd laparotomy was performed after 1 week. On examination prior to the 2nd laparotomy, animals were excluded from the 2nd laparotomy for the following: (i) loss of more than 15% of body weight since the 1st laparotomy; (ii) poor feeding. On laparotomy, adhesions were scored as previously then lysed (cut). The previously excised abdominal wall was re-abraded 50 times unidirectionally, and the cecum surface between 6-12th haustra was re-abraded 150-200 times bidirectionally using a sterile brush until a bleeding bed was obtained.
# Thirty animals were assigned randomly to experimental groups and test materials were applied on the injured areas. The operator was blinded as to the nature of the materials. HA-ADH and HA-CHO were sterilized by germicidal UV illumination for 2 hours and dissolved in 5 ml sterile saline, respectively. Ten ml of gel were applied on the injured sites with a dual valve applicator as previously. As controls, a group of animals received no treatment, and another group received 10 ml saline.
# After treatment of the injured areas, the peritoneum and abdominal wall were closed with 2-0 Ethilon and 3-0 Dexon, respectively. The skin was closed with 2-0 Ethilon. Animals were allowed to awaken and had food and water ad libitum. Buprenorphine 0.02-0.03 mg/kg was administered sc 8-12 hours interval until 48 hours post-surgery. The animals were sacrificed 1 week after the second laparotomy by intravenous injection of sodium pentobarbital. Adhesions were scored in two ways. (i) Quality of adhesions was scored as follows: Adhesions were scored using a modification of a reported method (Burns J W, Skinner K, Colt J, Sheidlin A, Bronson R, Yaacobi Y, et al. Prevention of tissue injury and postsurgical adhesions by precoating tissues with hyaluronic acid solutions. Journal of Surgical Research 1995;59:644-652, which is incorporated herein by reference). Score 0=no adhesion, score 1=tissue adherence that would separate with gravity, score 2=tissue adherence separable by blunt dissection, score 3=adhesion requiring sharp dissection. If there were multiple adhesions of different scores, we chose the higher one as a representative score. (ii) Area of score 2 or 3 adhesions was measured for quantitative evaluation of the adhesions. The location of adhesions (whether they include suture sites or not; location and number of cecal haustra involved in the adhesion) and weight changes were recorded. Tissues recovered from the necropsy were fixed in 10% formalin, embedded in paraffin, sectioned, and stained with hematoxylin and eosin for histological examination.
# Peritoneal adhesions were induced in female albino rabbits (Oryctolagus cuniculus; New Zealand White) (3±0.5 kg) through repeated laparotomies as described in our previous study [tPA]. Briefly, cecum abrasion and excision of abdominal wall were performed to induce de novo adhesions (Yeo et al. In situ cross-linkable hyaluronic acid hydrogels prevent post-operative abdominal adhesions in a rabbit model. Biomaterials 2006;27:4698-4705, which is incorporated herein by reference). A second laparotomy was performed after 1 week to cut the adhesions and introduce additional injuries to the same locations as those injured in the first laparotomy. […]
molecule,measurement,setting,value
CCCC1O[C@@H]2C[C@H]3[C@@H]4CCC5=CC(=O)C=C[C@]5(C)[C@H]4[C@@H](O)C[C@]3(C)[C@]2(C(=O)CO)O1 (some centres unmarked) [Budesonide],solubility at 24 h,[1],27 µg/mL
same,solubility in water,[2],< 100 µg/mL
C[C@@H]1C[C@H]2[C@@H]3CCC4=CC(=O)C=C[C@]4(C)[C@@]3(F)[C@@H](O)C[C@]2(C)[C@@]1(O)C(=O)CO [Dexamethasone],concentrations with no effect on production of IL-6,[3],lower than 10^−9 M
same,concentrations with no effect on production of TNF-α,[4],lower than 10^−9 M
HA-adipic dihydrazide [HA-ADH],effect of polymers on mesothelial cell viability (MTT),[5],small reductions in cell viability
"hyaluronic acid [HA, reference compound]",effect of polymers on mesothelial cell viability (MTT),[5],small reductions in cell viability
tPA: bolus of tPA solution (2.2 mg Activase) in the absence of HAX,"Qualitative (score) % frequency, score 0",peritoneal adhesions; 10 ml applied on injured sites,25%
same,"Qualitative (score) % frequency, score 1",peritoneal adhesions; 10 ml applied on injured sites,0%
same,"Qualitative (score) % frequency, score 2",peritoneal adhesions; 10 ml applied on injured sites,0%
same,"Qualitative (score) % frequency, score 3",peritoneal adhesions; 10 ml applied on injured sites,75%
same,"Quantitative (adhesion area), median",peritoneal adhesions; area of score 2 or 3 adhesions,2.4 cm^2
